# Assay results reported in patent US20070104803A1, “Chinese herbal composition for treating diseases” (Kaohsiung Medical University, priority 2005, published 2007).
# Columns and labels:
# Assay type in all cases: in vivo, rat
# Wistar rats [1] = assay: Acute survival study after LPS
# Procedure: (§1) The animal experiment is approved by the Animal Care and Use Committee at the Kaohsiung Medical University. The male Wistar rats, weighing 250-350 g, are provided by the National Laboratory Animal Breeding and Research Center (Taipei, Taiwan). The rats are housed under conditions of constant temperature and controlled illumination (light regime of 12 h light and 12 h darkness). The rats are allowed food and water ad libitum. They are anesthetized with an intraperitoneal (i.p.) injection of pentobarbital sodium (50 mg/kg). Following tracheal cannulation, systemic arterial blood pressure and heart rate are recorded from the femoral artery with a pressure transducer (Spectramed, Model P10EZ, USA). Body temperature is maintained at 37° C. by an electric heating pad. A femoral vein is cannulated for the administration of LPS (E. coli serotype 026:B6), HBCM, baicalin, or dexamethasone (DEXA), respectively. The rats are injected intravenously with either saline (0.1 ml/kg) or LPS (10 mg/kg) for control and experimental purposes, respectively. All the animals are assigned to one of the following groups: saline only, LPS/saline, LPS/HBCM (75 mg/kg), LPS/baicalin (1.5 mg/kg), and LPS/DEXA (0.5 mg/kg) groups. LPS is injected at a dose of 10 mg/kg, after 10 min, HBCM, baicalin and DEXA are given, respectively.
# A single injection of LPS (10 mg/kg, i.v.) leads to a biphasic arterial hypotension: an initial and transient decrease in arterial mean blood pressure (about 10 min), followed by a delayed and prolonged hypotension. The HBCM (75 mg/kg, i.v.), baicalin (1.5 mg/kg, i.v.) and DEXA (0.5 mg/kg, i.v.) are administrated 10 min after LPS administration. The used dose of baicalin is according to the content of baicalin in HBCM by the HPLC method. Separate groups are used for acute survival study (n=10 each), lung tissue sampling (n=10 each), and blood sampling (n=10 each). […]
# The animals without pulmonary are monitored per 30 minutes for 7 hours after LPS administration. The blood pressure (BP) changes were recorded within 5 hours after LPS injection. […]
# iNOS = assay: LPS-induced iNOS in lung tissues (western blot); conditions: 5 h after LPS 10 mg/kg; HBCM 75, baicalin 1.5, DEXA 0.5 mg/kg post-treatment; FIG. 8
# Procedure: as §1, with “All the animals are assigned to one of the following groups: saline only, LPS/saline, LPS/HBCM (75 mg/kg), LPS/baicalin (1.5 mg/kg), and LPS/DEXA (0.5 mg/kg) groups. LPS is injected at a dose of 10 mg/kg, after 10 min, HBCM, baicalin and DEXA are given, respectively.” left out
# (§2) The HBCM, baicalin and DEXA are post-treated 10 minutes after the administration of LPS. […] The expression of each protein is detected by enhanced chemiluminescence using Hyperfilm and ECL reagent (Amersham, UK).
# TNF-α = assay: LPS-induced plasma TNF-α immunoreactivity (post-treatment, ELISA); conditions: LPS 10 mg/kg i.v.; HBCM 75, baicalin 1.5, DEXA 0.5 mg/kg 10 min after LPS; FIG. 9
# Procedure: as §1, with “given, respectively. […]” for “given, respectively.”
# Wistar rats [2] = assay: Attenuation of LPS-induced arterial hypotension (post-treatment); conditions: HBCM 75 mg/kg, baicalin 1.5 mg/kg, DEXA 0.5 mg/kg i.v. 10 min after LPS 10 mg/kg i.v.; FIG. 3
# Procedure: as §1, with “given, respectively. […]” for “given, respectively.”
# IL-1β = assay: LPS-induced plasma IL-1β immunoreactivity (post-treatment, ELISA); conditions: LPS 10 mg/kg i.v.; post-treatment 10 min after LPS; up to 5 hours; FIG. 9
# Procedure: as §1, with “given, respectively. […]” for “given, respectively.”
# Wistar rats [3] = assay: LPS-induced lung edema (wet/dry weight ratio); conditions: 5 hours after LPS; HBCM, baicalin, DEXA given 10 min after LPS; FIG. 7
# Procedure: as §1, with “The rats are injected intravenously with either saline (0.1 ml/kg) or LPS (10 mg/kg) for control and experimental purposes, respectively. All the animals are assigned to one of the following groups: saline only, LPS/saline, LPS/HBCM (75 mg/kg), LPS/baicalin (1.5 mg/kg), and LPS/DEXA (0.5 mg/kg) groups. LPS is injected at a dose of 10 mg/kg, after 10 min, HBCM, baicalin and DEXA are given, respectively.” left out
# The water content of the lungs is determined by calculating the wet/dry weight ratio of lung tissues at 5 hours after LPS administration. […] The dry weight is determined after the lung is dried at 80° C. for 72 hours, and the edema index (wet/dry weight ratio) is calculated by dividing the wet weight by the dry weight. The edema index indicates the water content of the lung, which is determined by calculating the wet/dry weight ratio of lung tissues at 5 hours after LPS administration.
# [4] = test system: phosphorylated p38 MAP kinase; assay: LPS-induced phosphorylated p38 MAP kinase in lung tissues (western blot); conditions: 5 h after LPS 10 mg/kg; HBCM 75, baicalin 1.5, DEXA 0.5 mg/kg post-treatment; FIG. 8
# Procedure: as §1, with “All the animals are assigned to one of the following groups: saline only, LPS/saline, LPS/HBCM (75 mg/kg), LPS/baicalin (1.5 mg/kg), and LPS/DEXA (0.5 mg/kg) groups. LPS is injected at a dose of 10 mg/kg, after 10 min, HBCM, baicalin and DEXA are given, respectively.” left out
# as §2
# MCP-1 = assay: LPS-induced plasma MCP-1 immunoreactivity (post-treatment, ELISA); conditions: LPS 10 mg/kg i.v.; post-treatment 10 min after LPS; up to 5 hours; FIG. 9
# Procedure: as §1, with “given, respectively. […]” for “given, respectively.”
# ICAM-1 = assay: LPS-induced ICAM-1 in lung tissues (western blot); conditions: 5 h after LPS 10 mg/kg; HBCM 75, baicalin 1.5, DEXA 0.5 mg/kg post-treatment; FIG. 8
# Procedure: as §1, with “All the animals are assigned to one of the following groups: saline only, LPS/saline, LPS/HBCM (75 mg/kg), LPS/baicalin (1.5 mg/kg), and LPS/DEXA (0.5 mg/kg) groups. LPS is injected at a dose of 10 mg/kg, after 10 min, HBCM, baicalin and DEXA are given, respectively.” left out
# as §2
# TGF-β = assay: LPS-induced TGF-β in lung tissues (western blot); conditions: 5 h after LPS 10 mg/kg; HBCM 75, baicalin 1.5, DEXA 0.5 mg/kg post-treatment; FIG. 8
# Procedure: as §1, with “All the animals are assigned to one of the following groups: saline only, LPS/saline, LPS/HBCM (75 mg/kg), LPS/baicalin (1.5 mg/kg), and LPS/DEXA (0.5 mg/kg) groups. LPS is injected at a dose of 10 mg/kg, after 10 min, HBCM, baicalin and DEXA are given, respectively.” left out
# as §2
Compound,"time all the rats survive (Wistar rats [1]; LPS 10 mg/kg, DEXA 0.5 mg/kg i.v. 10 min after LPS, n=10)",LPS-induced iNOS expression in lung tissues (iNOS),elevation of plasma TNF-α vs LPS/saline group (TNF-α),LPS-induced prolonged arterial hypotension (Wistar rats [2]),elevation of plasma IL-1β vs LPS/saline group (IL-1β),LPS-induced lung edema (wet/dry weight ratio) (Wistar rats [3]),"survival for 7 hours (Wistar rats [1]; LPS 10 mg/kg, HBCM 75 mg/kg or baicalin 1.5 mg/kg i.v. 10 min after LPS, n=10) [%]","survival rate compared with LPS/saline group (Wistar rats [1]; post-treatment 10 min after LPS 10 mg/kg, FIG. 6)",LPS-induced phosphorylated p38 MAP kinase expression in lung tissues [4],elevation of plasma MCP-1 vs LPS/saline group (MCP-1),LPS-induced ICAM-1 expression in lung tissues (ICAM-1),LPS-induced TGF-β expression in lung tissues (TGF-β)
"C[C@@H]1C[C@H]2[C@@H]3CCC4=CC(=O)C=C[C@]4(C)[C@@]3(F)[C@@H](O)C[C@]2(C)[C@@]1(O)C(=O)CO [DEXA, dexamethasone]",more than 7 hours,–,–,–,–,–,–,–,–,–,–,–
O=C(O)[C@H]1O[C@@H](Oc2cc3oc(-c4ccccc4)cc(=O)c3c(O)c2O)[C@H](O)[C@@H](O)[C@@H]1O [baicalin],–,significant inhibition,significantly lower,significantly attenuates,lower,significantly attenuates,90,significantly better survival rate,significant inhibition,lower,significant inhibition,significant inhibition
